Results on seven molecules are retold here after ChEMBL document CHEMBL2380212, “Synthesis, single crystal and antitumor activities of benzimidazole-quinazoline hybrids” (Bioorg Med Chem Lett, 2013).

Format in all cases: functional
Assay [1] has as its system RPMI-8226. The assay is described as follows: Cytotoxicity against human RPMI8226 cells at 10 uM after 48 hrs by SRB assay. Conditions: RPMI-8226, 48 h, read-out: GI. (In SRB staining, fixed cells bind dye roughly in proportion to their protein.)
In assay [2] the test system is DU-145. The assay is described as follows: Cytotoxicity against human DU145 cells at 10 uM after 48 hrs by SRB assay. Conditions: DU-145, 48 h, read-out: GI.
Assay [3] deals with OVCAR-4. The assay is described as follows: Cytotoxicity against human OVCAR4 cells at 10 uM after 48 hrs by SRB assay. Conditions: OVCAR-4, 48 h, read-out: GI.
The subject of assay [4] is Malme-3M. Nature of the assay: Cytotoxicity against human MALME-3M cells at 10 uM after 48 hrs by SRB assay. Conditions: read-out: GI.
The subject of assay [5] is U-251. The assay is described as follows: Cytotoxicity against human U251 cells at 10 uM after 48 hrs by SRB assay. Particulars: U-251, 48 h, read-out: GI.
The test system of assay [6] is OVCAR-8. The assay is described as follows: Cytotoxicity against human OVCAR8 cells at 10 uM after 48 hrs by SRB assay. Particulars: OVCAR-8, 48 h, read-out: GI.
The test system of assay [7] is NCI-H226. Nature of the assay: Cytotoxicity against human NCI-H226 cells at 10 uM after 48 hrs by SRB assay. Conditions: NCI-H226, 48 h, read-out: GI.
Assay [8] concerns SK-MEL-2. The assay is described as follows: Cytotoxicity against human SK-MEL-2 cells at 10 uM after 48 hrs by SRB assay. Conditions: SK-MEL-2, 48 h, read-out: GI.
The subject of assay [9] is PC-3. The assay is described as follows: Cytotoxicity against human PC3 cells at 10 uM after 48 hrs by SRB assay. Conditions: PC-3, 48 h, read-out: GI.
Assay [10] concerns K562. Nature of the assay: Cytotoxicity against human K562 cells at 10 uM after 48 hrs by SRB assay. Conditions: K562, 48 h, read-out: GI.
For assay [11], the system named is NCI-H460. Nature of the assay: Cytotoxicity against human NCI-H460 cells at 10 uM after 48 hrs by SRB assay. Conditions: NCI-H460, 48 h, read-out: GI.
Assay [12] concerns SF-268. The assay is described as follows: Cytotoxicity against human SF268 cells at 10 uM after 48 hrs by SRB assay. Conditions: SF-268, 48 h, read-out: GI.
Assay [13] deals with CCRF-CEM. Nature of the assay: Cytotoxicity against human CCRF-CEM cells at 10 uM after 48 hrs by SRB assay. Particulars: read-out: GI.
Assay [14] has as its system NCI/ADR-RES. Nature of the assay: Cytotoxicity against human NCI/ADR-RES cells at 10 uM after 48 hrs by SRB assay. Conditions: read-out: GI.
In assay [15] the test system is KM12. The assay is described as follows: Cytotoxicity against human KM12 cells at 10 uM after 48 hrs by SRB assay. Particulars: KM12, 48 h, read-out: GI.
Assay [16] deals with BT-549. The assay is described as follows: Cytotoxicity against human BT549 cells at 10 uM after 48 hrs by SRB assay. Conditions: BT-549, 48 h, read-out: GI.
Assay [17] deals with HT-29. The assay is described as follows: Cytotoxicity against human HT-29 cells at 10 uM after 48 hrs by SRB assay. Particulars: HT-29, 48 h, read-out: GI.
For assay [18], the system named is UACC-257. Nature of the assay: Cytotoxicity against human UACC257 cells at 10 uM after 48 hrs by SRB assay. Particulars: UACC-257, 48 h, read-out: GI.
Assay [19] deals with SR. The assay is described as follows: Cytotoxicity against human SR cells at 10 uM after 48 hrs by SRB assay. Conditions: read-out: GI.

In the case of `C=CCn1c(C)nc2ccc(Nc3nc(N4CCN(C)CC4)nc4ccccc34)cc21`, the inhibition of growth at 10 µM in assay [1] is 28.5%; in assay [2], less than 10%; in assay [3] it was 20.7%; in assay [4], less than 10%; in [5] it was 10.2%; in assay [6], 23.4%. Moreover, the inhibition of growth at 10 µM in [7] was 13.6%; in assay [8], less than 10%; in assay [9], 25.9%; in assay [10], 37.8%; in assay [11], less than 10%; in [12], less than 10%. Further, the inhibition of growth at 10 µM in assay [13] was 31.5%; in assay [14] it was less than 10%; in [15] it was 20.5%; in assay [16], 20.7%; in [17], 42.6%; in assay [18], less than 10%.

On to `C=CCn1c(C)nc2ccc(Nc3nc(Cl)nc4ccccc34)cc21`, for which the inhibition of growth at 10 µM in [1] was 24.7%; in [2] it was less than 10%; in assay [3], less than 10%; in assay [4], less than 10%; in assay [5] it was less than 10%; in [6] it was less than 10%. In addition, the inhibition of growth at 10 µM in assay [7] is less than 10%; in assay [19], less than 10%; in assay [8], less than 10%; in assay [9], 18%; in assay [10], 25.2%; in assay [11], less than 10%. Moreover, the inhibition of growth at 10 µM was 10.1% in [12]; less than 10% in [14]; less than 10% in assay [15]; less than 10% in [16]; less than 10% in assay [17]; less than 10% in assay [18].

On to `C=CCn1c(C)nc2ccc(Nc3nc(N4CCCC4)nc4ccccc34)cc21`, for which the inhibition of growth at 10 µM in assay [1] was 45%; in assay [2], 26.2%; in assay [3] it was less than 10%; in assay [4], less than 10%; in assay [5] it was less than 10%; in assay [6], 15.9%. Moreover, the inhibition of growth at 10 µM in [7] was less than 10%; in assay [19], 94.2%; in [8] it was less than 10%; in assay [9], less than 10%; in [10], 98%; in assay [11] it was 18.7%. For the same molecule, the inhibition of growth at 10 µM in assay [12] was 13.1%; in assay [14], 16.7%; in assay [15], 29.9%; in assay [16] it was 13.1%; in assay [17] it was 94.3%; in assay [18], less than 10%.

Take `C=CCn1c(C)nc2ccc(Nc3nc(N4CCOCC4)nc4ccccc34)cc21`: the inhibition of growth at 10 µM in assay [2] was less than 10%; in [3], less than 10%; in [4], less than 10%; in assay [5], less than 10%; in assay [6] it was 20.1%; in assay [7], less than 10%. In addition, the inhibition of growth at 10 µM is less than 10% in assay [19]; less than 10% in assay [8]; 11.4% in assay [9]; 35.6% in [10]; less than 10% in assay [11]; less than 10% in [12]. For the same molecule, the inhibition of growth at 10 µM is 23.6% in assay [14]; 11.9% in assay [15]; less than 10% in assay [16]; 34.7% in [17]; less than 10% in assay [18].

Consider `C=CCn1c(C)nc2cc(Nc3nc(N4CCCC4)nc4ccccc34)ccc21`, for which the inhibition of growth at 10 µM in [1] is 12.2%; in [2], less than 10%; in [3], less than 10%; in assay [4] it was less than 10%; in assay [5], less than 10%; in assay [6], less than 10%. Also, the inhibition of growth at 10 µM is 22% in assay [7]; 11% in [19]; less than 10% in assay [8]; 18.2% in [9]; 14.9% in assay [10]; less than 10% in assay [11]. Moreover, the inhibition of growth at 10 µM in assay [12], in [14], in [15], in [16], in assay [17] and in [18] was less than 10% each time.

With `C=CCn1c(C)nc2cc(Nc3nc(Cl)nc4ccccc34)ccc21`, the inhibition of growth at 10 µM in assay [1] was 22.3%; in assay [2], less than 10%; in assay [3] it was less than 10%; in [5] it was less than 10%; in assay [6], less than 10%; in [7], 17.8%. The inhibition of growth at 10 µM is less than 10% in assay [19]; less than 10% in assay [8]; 19.5% in [9]; 21.3% in assay [10]; less than 10% in assay [11]; less than 10% in assay [12]. For the same molecule, the inhibition of growth at 10 µM in assay [14] was 10.5%; in assay [15] it was less than 10%; in [16], less than 10%; in [17] it was less than 10%; in assay [18], less than 10%.

With `C=CCn1c(C)nc2cc(Nc3nc(N4CCOCC4)nc4ccccc34)ccc21`, the inhibition of growth at 10 µM in assay [1] is 13.4%; in assay [2], less than 10%; in assay [3], less than 10%; in assay [5], less than 10%; in assay [6] it was less than 10%; in assay [7], less than 10%. The inhibition of growth at 10 µM in assay [19] was less than 10%; in assay [8] it was less than 10%; in assay [9], 11.9%; in assay [10], less than 10%; in [11], less than 10%; in assay [12] it was less than 10%. The inhibition of growth at 10 µM in assay [14], in [15], in assay [16], in assay [17] and in assay [18] was less than 10% in each case.
